Values quoted from earlier work as cited in patent publication US8846088B2, “Melt granulation of a composition containing a calcium-containing compound” (Takeda Nycomed AS, priority 2005, dated 2014).

System: elderly patients
Settings: annual injections of 150.000-300.000 IU

Substance: vitamin D
- overall fracture rate: significant reduction in overall fracture rate
- rate of hip fracture: not in the rate of hip fracture
